{"source": "patent US20060069132A1", "about": "“Azolecarboxamide herbicides” (priority 2004, published 2006)", "key": {"rice [1]": {"test_system": "rice", "assay": "Test C flooded paddy test", "type": "in vivo, Oryza sativa", "method_in_brief": "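Plants were grown to the 1- to 4-leaf stage (2–18 cm) and then treated postemergence, or grown to the 2-leaf stage for the flooded paddy test. They were held in a greenhouse for 12 to 14 days and then scored by eye against controls, where 0 is no effect and 100 is complete control.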"}, "barnyardgrass [2]": {"test_system": "barnyardgrass", "assay": "Test C flooded paddy test", "type": "in vivo, Echinochloa crus-galli", "method_in_brief": "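Scoring by eye, 12–14 days post-treatment, greenhouse-held plants vs. controls; 0 no effect, 100 complete control. Sprayed at 1–4 leaves (2–18 cm); paddy barnyardgrass at 2 leaves, flooded.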"}, "ducksalad [3]": {"test_system": "ducksalad", "assay": "Test B flooded paddy test", "type": "in vivo, Heteranthera limosa", "conditions": "1000 g ai/ha, scale 0 to 100 (0 no effect, 100 complete control)", "method_in_brief": "(§1)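 Postemergence plants were sprayed with formulated test chemicals at 2 to 18 cm height (1- to 4-leaf stage); paddy species were grown to the 2-leaf stage. After 13 to 15 days in a greenhouse, injury was rated visually against untreated controls on a 0–100 scale (0 = no effect, 100 = complete control).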"}, "rice [4]": {"test_system": "rice", "assay": "Test B flooded paddy test", "type": "in vivo, Oryza sativa", "conditions": "1000 g ai/ha, scale 0 to 100 (0 no effect, 100 complete control)", "method_in_brief": "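Paddy species grown to the 2-leaf stage under flooding; blackgrass sprayed postemergence at 2–18 cm (1- to 4-leaf stage). Plants kept in a greenhouse for 13 to 15 days, then visually rated against controls on 0 (no effect) to 100 (complete control).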"}, "pigweed": {"test_system": "pigweed", "assay": "Test B pre-/postemergence herbicide test", "type": "in vivo, Amaranthus retroflexus", "conditions": "for Pigweed plant response rating: postemergence", "method_in_brief": "(§2)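 Test chemicals in a non-phytotoxic solvent mixture with surfactant were applied preemergence to seeded species and postemergence to plants 2-18 cm tall (1- to 4-leaf stage); rice and barnyardgrass were also tested in a flooded paddy at the 2-leaf stage. Visual rating versus controls after 13-15 days in greenhouse, scale 0 (no effect) to 100 (complete control).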"}, "wild oat": {"test_system": "wild oat", "assay": "Test B postemergence herbicide test", "type": "in vivo, Avena fatua", "conditions": "postemergence", "method_in_brief": "(§3)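 Scale 0–100: zero equals no visible effect, 100 complete control, judged by eye relative to controls. Timing: 13 to 15 days in greenhouse post-treatment. Growth stage at spraying: two leaves (paddy) or one to four leaves, 2–18 cm (postemergence).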"}, "barnyardgrass [5]": {"test_system": "barnyardgrass", "assay": "Test B flooded paddy test", "type": "in vivo, Echinochloa crus-galli", "conditions": "1000 g ai/ha, scale 0 to 100 (0 no effect, 100 complete control)", "method_in_brief": "as §1"}, "Surinam grass": {"test_system": "Surinam grass", "assay": "Test B pre-/postemergence herbicide test", "type": "in vivo, Urochloa decumbens", "conditions": "for Surinam Grass plant response rating: postemergence", "method_in_brief": "as §2"}, "blackgrass": {"test_system": "blackgrass", "assay": "Test B postemergence herbicide test", "type": "in vivo, Alopecurus myosuroides", "conditions": "postemergence", "method_in_brief": "as §1"}, "cocklebur": {"test_system": "cocklebur", "assay": "Test B pre-/postemergence herbicide test", "type": "in vivo, Xanthium strumarium", "conditions": "for Cocklebur plant response rating: postemergence", "method_in_brief": "(§4)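 Seeds were planted and treated preemergence with compounds formulated in a non-phytotoxic solvent mixture containing surfactant, while plants at the 1- to 4-leaf stage (2 to 18 cm) received postemergence sprays. Flooded paddy plants were grown to the 2-leaf stage. After 13 to 15 days in a greenhouse, injury was visually rated 0–100 against untreated controls.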"}, "[6]": {"test_system": "small flower umbrella sedge", "assay": "Test B flooded paddy test", "type": "in vivo, Cyperus difformis", "conditions": "1000 g ai/ha, scale 0 to 100 (0 no effect, 100 complete control)", "method_in_brief": "as §1"}, "giant foxtail": {"test_system": "giant foxtail", "assay": "Test B pre-/postemergence herbicide test", "type": "in vivo, Setaria faberi", "conditions": "for Foxtail, Giant plant response rating: postemergence", "method_in_brief": "as §2"}, "barnyardgrass [7]": {"test_system": "barnyardgrass", "assay": "Test B pre-/postemergence herbicide test", "type": "in vivo, Echinochloa crus-galli", "conditions": "for Barnyardgrass plant response rating: postemergence", "method_in_brief": "as §4"}, "[8]": {"test_system": "smallflower umbrella sedge", "assay": "Test C flooded paddy test", "type": "in vivo, Cyperus difformis"}, "ducksalad [9]": {"test_system": "ducksalad", "assay": "Test C flooded paddy test", "type": "in vivo, Heteranthera limosa"}, "large crabgrass": {"test_system": "large crabgrass", "assay": "Test B pre-/postemergence herbicide test", "type": "in vivo, Digitaria sanguinalis", "conditions": "for Crabgrass, Large plant response rating: postemergence", "method_in_brief": "as §2"}, "morningglory": {"test_system": "morningglory", "assay": "Test B pre-/postemergence herbicide test", "type": "in vivo, Ipomoea coccinea", "conditions": "for Morningglory plant response rating: postemergence", "method_in_brief": "as §4"}, "wheat": {"test_system": "wheat", "assay": "Test B postemergence herbicide test", "type": "in vivo, Triticum aestivum", "parameters": "key to Wheat plant response rating: 0 = no effect, 100 = complete control", "conditions": "postemergence", "method_in_brief": "as §3"}, "lambsquarters": {"test_system": "lambsquarters", "assay": "Test B pre-/postemergence herbicide test", "type": "in vivo, Chenopodium album", "conditions": "for Lambsquarters plant response rating: postemergence", "method_in_brief": "as §2"}, "velvetleaf": {"test_system": "velvetleaf", "assay": "Test B pre-/postemergence herbicide test", "type": "in vivo, Abutilon theophrasti", "conditions": "for Velvetleaf plant response rating: postemergence", "method_in_brief": "as §2"}, "corn": {"test_system": "corn", "assay": "Test B pre-/postemergence herbicide test", "type": "in vivo, Zea mays", "conditions": "for Corn plant response rating: postemergence", "method_in_brief": "as §2"}, "[10]": {"conditions": "125 g ai/ha, scale 0 to 100 (0 no effect, 100 complete control)"}, "[11]": {"conditions": "250 g ai/ha, scale of 0 to 100, 0 is no effect, 100 is complete control"}, "[12]": {"conditions": "500 g ai/ha, visual rating after 12 to 14 days, scale 0 to 100 (0 no effect, 100 complete control)"}, "[13]": {"conditions": "125 g ai/ha, 0 is no effect, 100 is complete control, preemergence"}, "[14]": {"conditions": "125 g ai/ha, visual rating, scale 0 (no effect) to 100 (complete control)"}, "[15]": {"conditions": "500 g ai/ha, visual rating, 0 = no effect, 100 = complete control, preemergence"}, "[16]": {"conditions": "500 g ai/ha, scale 0 to 100, 0 is no effect, 100 is complete control"}}, "data": [{"compound": "CCc1nn(C(C)C)nc1C(=O)Nc1cccc(C(=O)N2CC=CC2)c1", "note": "[Compound 359]", "values": [{"measurement": "Rice plant response rating", "setting": "rice [1]; 62 g ai/ha, scale 0 to 100", "value": 20}, {"measurement": "Rice plant response rating", "setting": "rice [1]; [10]", "value": 45}, {"measurement": "Rice plant response rating", "setting": "rice [1]; [11]", "value": 65}, {"measurement": "Plant response rating, Rice", "setting": "rice [1]; [12]", "value": 80}, {"measurement": "Barnyardgrass plant response rating", "setting": "barnyardgrass [2]; 62 g ai/ha, scale 0 to 100 (0 no effect, 100 complete control)", "value": 15}, {"measurement": "Barnyardgrass plant response rating", "setting": "barnyardgrass [2]; [10]", "value": 55}, {"measurement": "Barnyardgrass plant response rating", "setting": "barnyardgrass [2]; [11]", "value": 75}, {"measurement": "Plant response rating, Barnyardgrass", "setting": "barnyardgrass [2]; [12]", "value": 75}, {"measurement": "Ducksalad plant response rating", "setting": "ducksalad [3]", "value": 70}, {"measurement": "Rice plant response rating", "setting": "rice [4]", "value": 70}, {"measurement": "Plant response rating (0 to 100 scale), Pigweed", "setting": "pigweed; [13]", "value": 0}, {"measurement": "Pigweed plant response rating", "setting": "pigweed; [14]", "value": 20}, {"measurement": "Plant response rating, Pigweed", "setting": "pigweed; [15]", "value": 100}, {"measurement": "Pigweed plant response rating", "setting": "pigweed; [16]", "value": 50}, {"measurement": "Oat, Wild plant response rating", "setting": "wild oat; [14]", "value": 20}, {"measurement": "Oat, Wild plant response rating", "setting": "wild oat; [16]", "value": 30}, {"measurement": "Barnyardgrass plant response rating", "setting": "barnyardgrass [5]", "value": 70}, {"measurement": "Plant response rating (0 to 100 scale), Surinam Grass", "setting": "Surinam grass; [13]", "value": 20}, {"measurement": "Surinam Grass plant response rating", "setting": "Surinam grass; [14]", "value": 10}, {"measurement": "Plant response rating, Surinam Grass", "setting": "Surinam grass; [15]", "value": 70}, {"measurement": "Surinam Grass plant response rating", "setting": "Surinam grass; [16]", "value": 10}, {"measurement": "Blackgrass plant response rating", "setting": "blackgrass; [14]", "value": 20}, {"measurement": "Blackgrass plant response rating", "setting": "blackgrass; [16]", "value": 50}, {"measurement": "Plant response rating (0 to 100 scale), Cocklebur", "setting": "cocklebur; [13]", "value": 0}, {"measurement": "Cocklebur plant response rating", "setting": "cocklebur; [14]", "value": 10}, {"measurement": "Plant response rating, Cocklebur", "setting": "cocklebur; [15]", "value": 30}, {"measurement": "Cocklebur plant response rating", "setting": "cocklebur; [16]", "value": 30}, {"measurement": "Sedge, Umbrella plant response rating", "setting": "[6]", "value": 80}, {"measurement": "Plant response rating (0 to 100 scale), Foxtail, Giant", "setting": "giant foxtail; [13]", "value": 60}, {"measurement": "Foxtail, Giant plant response rating", "setting": "giant foxtail; [14]", "value": 20}, {"measurement": "Plant response rating, Foxtail, Giant", "setting": "giant foxtail; [15]", "value": 100}, {"measurement": "Foxtail, Giant plant response rating", "setting": "giant foxtail; [16]", "value": 20}, {"measurement": "Plant response rating (0 to 100 scale), Barnyardgrass", "setting": "barnyardgrass [7]; [13]", "value": 0}, {"measurement": "Barnyardgrass plant response rating", "setting": "barnyardgrass [7]; [14]", "value": 10}, {"measurement": "Plant response rating, Barnyardgrass", "setting": "barnyardgrass [7]; [15]", "value": 90}, {"measurement": "Barnyardgrass plant response rating", "setting": "barnyardgrass [7]; [16]", "value": 10}, {"measurement": "Sedge, Umbrella plant response rating", "setting": "[8]; 62 g ai/ha, scale 0 to 100", "value": 80}, {"measurement": "Sedge, Umbrella plant response rating", "setting": "[8]; [10]", "value": 90}, {"measurement": "Sedge, Umbrella plant response rating", "setting": "[8]; [11]", "value": 90}, {"measurement": "Plant response rating, Sedge, Umbrella", "setting": "[8]; [12]", "value": 95}, {"measurement": "Ducksalad plant response rating", "setting": "ducksalad [9]; 62 g ai/ha, scale 0 to 100", "value": 40}, {"measurement": "Ducksalad plant response rating", "setting": "ducksalad [9]; [10]", "value": 80}, {"measurement": "Ducksalad plant response rating", "setting": "ducksalad [9]; [11]", "value": 85}, {"measurement": "Plant response rating, Ducksalad", "setting": "ducksalad [9]; [12]", "value": 90}, {"measurement": "Plant response rating (0 to 100 scale), Crabgrass, Large", "setting": "large crabgrass; [13]", "value": 90}, {"measurement": "Crabgrass, Large plant response rating", "setting": "large crabgrass; [14]", "value": 10}, {"measurement": "Plant response rating, Crabgrass, Large", "setting": "large crabgrass; [15]", "value": 100}, {"measurement": "Crabgrass, Large plant response rating", "setting": "large crabgrass; [16]", "value": 20}, {"measurement": "Plant response rating (0 to 100 scale), Morningglory", "setting": "morningglory; [13]", "value": 0}, {"measurement": "Morningglory plant response rating", "setting": "morningglory; [14]", "value": 10}, {"measurement": "Plant response rating, Morningglory", "setting": "morningglory; [15]", "value": 50}, {"measurement": "Morningglory plant response rating", "setting": "morningglory; [16]", "value": 10}, {"measurement": "Wheat plant response rating", "setting": "wheat; [14]", "value": 0}, {"measurement": "Wheat plant response rating", "setting": "wheat; [16]", "value": 20}, {"measurement": "Plant response rating (0 to 100 scale), Lambsquarters", "setting": "lambsquarters; [13]", "value": 0}, {"measurement": "Lambsquarters plant response rating", "setting": "lambsquarters; [14]", "value": 40}, {"measurement": "Plant response rating, Lambsquarters", "setting": "lambsquarters; [15]", "value": 100}, {"measurement": "Lambsquarters plant response rating", "setting": "lambsquarters; [16]", "value": 50}, {"measurement": "Plant response rating (0 to 100 scale), Velvetleaf", "setting": "velvetleaf; [13]", "value": 0}, {"measurement": "Velvetleaf plant response rating", "setting": "velvetleaf; [14]", "value": 20}, {"measurement": "Velvetleaf plant response rating", "setting": "velvetleaf; [16]", "value": 20}, {"measurement": "Plant response rating (0 to 100 scale), Corn", "setting": "corn; [13]", "value": 0}, {"measurement": "Corn plant response rating", "setting": "corn; [14]", "value": 10}, {"measurement": "Plant response rating, Corn", "setting": "corn; [15]", "value": 60}, {"measurement": "Corn plant response rating", "setting": "corn; [16]", "value": 10}]}]}
